ChEMBL document CHEMBL1681651, “A broad spectrum anticancer nucleoside with selective toxicity against human colon cells in vitro” (2011)

What was measured:
Type in all cases: functional
[1] = tested on: NCI/ADR-RES; assay: Growth inhibition of human NCI/ADR-RES cells assessed as cell growth at 1 uM after 48 hrs by SRB assay; conditions: read-out: Activity
[2] = Growth inhibition of human Hs 578T cells assessed as cell growth at 1 uM after 48 hrs by SRB assay; conditions: read-out: Activity
[3] = tested on: HL-60(TB); assay: Growth inhibition of human HL-60(TB) cells after 48 hrs by […] growth inhibition assay; conditions: HL-60, 48 h
[4] = tested on: K562; assay: Growth inhibition of human K562 cells after 48 hrs by […] growth inhibition assay; conditions: K562, 48 h
[5] = tested on: MOLT-4; assay: Growth inhibition of human MOLT4 cells after 48 hrs by […] growth inhibition assay; conditions: MOLT-4, 48 h
[6] = tested on: HOP-62; assay: Growth inhibition of human HOP62 cells after 48 hrs by […] growth inhibition assay; conditions: HOP-62, 48 h
[7] = tested on: KM12; assay: Growth inhibition of human KM12 cells after 48 hrs by […] growth inhibition assay; conditions: KM12, 48 h
[8] = tested on: SW-620; assay: Growth inhibition of human SW620 cells after 48 hrs by […] growth inhibition assay; conditions: SW-620, 48 h
[9] = Growth inhibition of human Hs 578T cells after 48 hrs by […] growth inhibition assay
[10] = tested on: K562; assay: Growth inhibition of human K562 cells assessed as cell growth at 0.1 uM after 48 hrs by SRB assay; conditions: K562, 48 h, read-out: Activity
[11] = tested on: MOLT-4; assay: Growth inhibition of human MOLT4 cells assessed as cell growth at 0.1 uM after 48 hrs by SRB assay; conditions: MOLT-4, 48 h, read-out: Activity
[12] = tested on: HOP-62; assay: Growth inhibition of human HOP62 cells assessed as cell growth at 0.1 uM after 48 hrs by SRB assay; conditions: HOP-62, 48 h, read-out: Activity
[13] = tested on: HCC 2998; assay: Growth inhibition of human HCC2998 cells assessed as cell growth at 0.1 uM after 48 hrs by SRB assay; conditions: HCC 2998, 48 h, read-out: Activity
[14] = tested on: KM12; assay: Growth inhibition of human KM12 cells assessed as cell growth at 0.1 uM after 48 hrs by SRB assay; conditions: KM12, 48 h, read-out: Activity
[15] = tested on: SK-MEL-28; assay: Growth inhibition of human SK-MEL-28 cells assessed as cell growth at 0.1 uM after 48 hrs by SRB assay; conditions: SK-MEL-28, 48 h, read-out: Activity
[16] = Growth inhibition of human Hs 578T cells assessed as cell growth at 0.1 uM after 48 hrs by SRB assay; conditions: read-out: Activity
[17] = tested on: HL-60(TB); assay: Growth inhibition of human HL-60(TB) cells assessed as cell growth at 100 uM after 48 hrs by SRB assay; conditions: HL-60, 48 h, read-out: Activity
[18] = tested on: K562; assay: Growth inhibition of human K562 cells assessed as cell growth at 100 uM after 48 hrs by SRB assay; conditions: K562, 48 h, read-out: Activity
[19] = tested on: MOLT-4; assay: Growth inhibition of human MOLT4 cells assessed as cell growth at 100 uM after 48 hrs by SRB assay; conditions: MOLT-4, 48 h, read-out: Activity
[20] = tested on: SW-620; assay: Growth inhibition of human SW620 cells assessed as cell growth at 100 uM after 48 hrs by SRB assay; conditions: SW-620, 48 h, read-out: Activity
[21] = tested on: SK-MEL-28; assay: Growth inhibition of human SK-MEL-28 cells assessed as cell growth at 100 uM after 48 hrs by SRB assay; conditions: SK-MEL-28, 48 h, read-out: Activity
[22] = tested on: MCF7; assay: Growth inhibition of human MCF7 cells assessed as cell growth at 100 uM after 48 hrs by SRB assay; conditions: MCF7, 48 h, read-out: Activity
[23] = Growth inhibition of human Hs 578T cells assessed as cell growth at 100 uM after 48 hrs by SRB assay; conditions: read-out: Activity
[24] = tested on: HL-60(TB); assay: Growth inhibition of human HL-60(TB) cells assessed as cell growth at 1 mM after 48 hrs by SRB assay; conditions: HL-60, 48 h, read-out: Activity
[25] = tested on: SR; assay: Growth inhibition of human SR cells assessed as cell growth at 1 mM after 48 hrs by SRB assay; conditions: read-out: Activity
[26] = tested on: NCI/ADR-RES; assay: Growth inhibition of human NCI/ADR-RES cells assessed as cell growth at 1 mM after 48 hrs by SRB assay; conditions: read-out: Activity
[27] = tested on: HL-60(TB); assay: Growth inhibition of human HL-60(TB) cells assessed as cell growth at 1 uM after 48 hrs by SRB assay; conditions: HL-60, 48 h, read-out: Activity
[28] = tested on: MOLT-4; assay: Growth inhibition of human MOLT4 cells assessed as cell growth at 1 uM after 48 hrs by SRB assay; conditions: MOLT-4, 48 h, read-out: Activity
[29] = tested on: SR; assay: Growth inhibition of human SR cells assessed as cell growth at 1 uM after 48 hrs by SRB assay; conditions: read-out: Activity
[30] = tested on: SK-MEL-28; assay: Growth inhibition of human SK-MEL-28 cells assessed as cell growth at 1 uM after 48 hrs by SRB assay; conditions: SK-MEL-28, 48 h, read-out: Activity
[31] = tested on: MDA-MB-468; assay: Growth inhibition of human MDA-MB-468 cells assessed as cell growth at 10 uM after 48 hrs by SRB assay; conditions: MDA-MB-468, 48 h, read-out: Activity
[32] = read-out: LC50 (the source's name)
[33] = read-out: pLC50 (the source's name) (converted)

`CNC(=O)NC[C@H]1O[C@@H](n2cnc3c(NC(=O)Nc4ccccc4)ncnc32)[C@H](O[Si](C)(C)C(C)(C)C)[C@@H]1CC(=O)N(C)OC` showed a growth at 1 µM [1] of 109%, a growth at 1 µM [2] of 98% and a GI50 ([3]; read-out: GI50) of 1.81 µM. The CC50 [3, 32] was over 100 µM, the TGI ([3]; read-out: TGI) was 4.34 µM and the GI50 ([3]; read-out: pGI50 (converted)) was 1.82 µM. It also gave a CC50 [3, 33] of 16.2 µM, a TGI ([3]; read-out: pTGI (converted)) of 4.37 µM and a GI50 ([4]; read-out: GI50) of 3.12 µM. For the same molecule, the LC50 (concentration killing 50% of cells) ([4]; read-out: LC50) was over 100 µM, the TGI ([4]; read-out: TGI) was over 100 µM and the GI50 ([4]; read-out: pGI50 (converted)) was 3.09 µM. It also gave an LC50 (concentration killing 50% of cells) ([4]; read-out: pLC50 (converted)) of over 100 µM, a TGI ([4]; read-out: pTGI (converted)) of over 100 µM and a GI50 ([5]; read-out: GI50) of 2.13 µM. For the same molecule, the LC50 ([5]; read-out: LC50) was over 100 µM, the TGI ([5]; read-out: TGI) was 9.36 µM and the GI50 ([5]; read-out: pGI50 (converted)) was 2.24 µM. For the same molecule, the LC50 ([5]; read-out: pLC50 (converted)) was over 100 µM, the TGI ([5]; read-out: pTGI (converted)) was 9.33 µM and the GI50 ([6]; read-out: GI50) was 24.9 µM. For the same molecule, the CC50 [6, 32] was over 100 µM, the TGI ([6]; read-out: TGI) was over 100 µM and the GI50 ([6]; read-out: pGI50 (converted)) was 25.1 µM. It also gave a CC50 [6, 33] of over 100 µM, a TGI ([6]; read-out: pTGI (converted)) of over 100 µM and a GI50 ([7]; read-out: GI50) of 23.9 µM. The CC50 [7, 32] was over 100 µM, the TGI ([7]; read-out: TGI) was over 100 µM and the GI50 ([7]; read-out: pGI50 (converted)) was 24 µM. For the same molecule, the CC50 [7, 33] was over 100 µM, the TGI ([7]; read-out: pTGI (converted)) was over 100 µM and the GI50 ([8]; read-out: GI50) was over 100 µM. It also gave a CC50 [8, 32] of over 100 µM, a TGI ([8]; read-out: TGI) of over 100 µM and a GI50 ([8]; read-out: pGI50 (converted)) of over 100 µM. It also gave a CC50 [8, 33] of over 100 µM, a TGI ([8]; read-out: pTGI (converted)) of over 100 µM and a GI50 ([9]; read-out: GI50) of 5.79 µM. For the same molecule, the CC50 [9, 32] was over 100 µM, the TGI ([9]; read-out: TGI) was over 100 µM and the GI50 ([9]; read-out: pGI50 (converted)) was 5.75 µM. It also gave a CC50 [9, 33] of over 100 µM, a TGI ([9]; read-out: pTGI (converted)) of over 100 µM and a growth at 0.1 µM [10] of 95%. The growth at 0.1 µM [11] was 96%, the growth at 0.1 µM [12] was 92% and the growth at 0.1 µM [13] was 102%. For the same molecule, the growth at 0.1 µM [14] was 101%, the growth at 0.1 µM [15] was 97% and the growth at 0.1 µM [16] was 98%. For the same molecule, the growth at 100 µM [17] was -48%, the growth at 100 µM [18] was 17% and the growth at 100 µM [19] was -2%. It also gave a growth at 100 µM [20] of 65%, a growth at 100 µM [21] of 44% and a growth at 100 µM [22] of 34%. The growth at 100 µM [23] was 40%, the growth at 1000 µM [24] was -58% and the growth at 1000 µM [25] was -56%. It also gave a growth at 1000 µM [26] of 55%, a growth at 1 µM [27] of 86% and a growth at 1 µM [28] of 90%. It also gave a growth at 1 µM [29] of 89% and a growth at 1 µM [30] of 106%.

`CNC(=O)OC[C@H]1O[C@@H](n2cnc3c(NC(=O)Nc4ccccc4)ncnc32)[C@H](O[Si](C)(C)C(C)(C)C)[C@@H]1O[Si](C)(C)C(C)(C)C` showed a growth at 10 µM [31] of 104%.
